Experimental data as given in ChEMBL document CHEMBL3885881, “DrugMatrix”.

Species: Rattus norvegicus
Experiment: DrugMatrix - Regimen: Daily Repeat
Format: toxicity, organism-based, Sprague-Dawley
Design: regimen Daily Repeat, gender Male, age 6-8 weeks
Conditions: in vivo, po, route oral GAVAGE, vehicle .5 % CMC; for ABSOLUTE BASOPHIL / ABSOLUTE EOSINOPHIL / ABSOLUTE LYMPHOCYTE / ABSOLUTE MONOCYTE / ABSOLUTE SEGMENTED NEUTROPHIL / BASOPHIL / EOSINOPHIL / ERYTHROCYTE COUNT / HEMATOCRIT / HEMOGLOBIN / LEUKOCYTE COUNT / LYMPHOCYTE / MEAN CORPUSCULAR HEMOGLOBIN / MEAN CORPUSCULAR HEMOGLOBIN CONCENTRATION / MEAN CORPUSCULAR VOLUME / MONOCYTE / NEUTROPHIL / NUCLEATED RED BLOOD CELLS / PLATELET COUNT: tissue Blood; for ALANINE AMINOTRANSFERASE / ALBUMIN / ALKALINE PHOSPHATASE / ASPARTATE AMINOTRANSFERASE / BLOOD UREA NITROGEN / CARBON DIOXIDE / CHLORIDE / CHOLESTEROL / CREATINE PHOSPHOKINASE / CREATININE / GLUCOSE / LACTATE DEHYDROGENASE / LIPASE / PHOSPHORUS / POTASSIUM / SODIUM / TOTAL BILIRUBIN / TOTAL PROTEIN / URIC ACID: tissue Plasma
[1] = 0 mg/kg, 72 h, dose level Control, time 3 day
[2] = 0 mg/kg, 120 h, dose level Control, time 5 day
[3] = 29 mg/kg, 72 h, dose level Low, time 3 day

For `NC(=O)NC(=O)Cc1ccccc1` [PHENACEMIDE], which “ABSOLUTE BASOPHIL” value [1] is on record?
Its value is 0 CELLS/uL.

What about the “ABSOLUTE EOSINOPHIL” value [1] of the same molecule?
Its value is 15.17 CELLS/uL.

What about the “ABSOLUTE LYMPHOCYTE” value [1] of the same molecule?
Its value is 10149.83 CELLS/uL.

What about the “ABSOLUTE MONOCYTE” value [1] of the same molecule?
The value was 193.33 CELLS/uL.

And the “ABSOLUTE SEGMENTED NEUTROPHIL” value [1]?
Its value is 1575 CELLS/uL.

What about the BASOPHIL [1] of the same molecule?
The BASOPHIL was 0%.

And the EOSINOPHIL [1]?
Its EOSINOPHIL is 0.17%.

And the “ERYTHROCYTE COUNT” value [1]?
The value was 5.53 x10E6/uL.

And the HEMATOCRIT [1]?
The HEMATOCRIT was 34.7%.

What about the HEMOGLOBIN [1] of the same molecule?
Its HEMOGLOBIN is 12.78 G/DL.

What about the “LEUKOCYTE COUNT” value [1] of the same molecule?
Its value is 11.93 x10E3/uL.

What about the LYMPHOCYTE [1] of the same molecule?
The LYMPHOCYTE was 85.5%.

And the “MEAN CORPUSCULAR HEMOGLOBIN” value [1]?
The value was 23.15 pg.

And the “MEAN CORPUSCULAR HEMOGLOBIN CONCENTRATION” value [1]?
The value was 36.9 G/DL.

What about the “MEAN CORPUSCULAR VOLUME” value [1] of the same molecule?
The value was 62.82 fL.

What about the MONOCYTE [1] of the same molecule?
Its MONOCYTE is 1.5%.

What about the NEUTROPHIL [1] of the same molecule?
The NEUTROPHIL was 12.83%.

What about the “NUCLEATED RED BLOOD CELLS” value [1] of the same molecule?
The value was 0.5 /100WBC.

What about the “PLATELET COUNT” value [1] of the same molecule?
The value was 994.17 x10E3/uL.

What about the “ALANINE AMINOTRANSFERASE” value [1] of the same molecule?
Its value is 48.17 u/L.

What about the ALBUMIN [1] of the same molecule?
The ALBUMIN was 4.37 G/DL.

What about the “ALKALINE PHOSPHATASE” value [1] of the same molecule?
The value was 436.5 u/L.

And the “ASPARTATE AMINOTRANSFERASE” value [1]?
Its value is 83.17 u/L.

What about the “BLOOD UREA NITROGEN” value [1] of the same molecule?
The value was 14.67 mg/dL.

What about the “CARBON DIOXIDE” value [1] of the same molecule?
Its value is 30.83 mmol/L.

What about the CHLORIDE [1] of the same molecule?
The CHLORIDE was 99.17 MEQ/L.

And the CHOLESTEROL [1]?
The CHOLESTEROL was 86.33 mg/dL.

And the “CREATINE PHOSPHOKINASE” value [1]?
Its value is 243.33 u/L.

And the CREATININE [1]?
The CREATININE was 0.25 mg/dL.

And the GLUCOSE [1]?
The GLUCOSE was 158 mg/dL.

And the “LACTATE DEHYDROGENASE” value [1]?
Its value is 262.33 u/L.

And the LIPASE [1]?
Its LIPASE is 11 u/L.

And the PHOSPHORUS [1]?
Its PHOSPHORUS is 12.07 mg/dL.

What about the POTASSIUM [1] of the same molecule?
Its POTASSIUM is 6.52 MEQ/L.

And the SODIUM [1]?
The SODIUM was 142.45 MEQ/L.

What about the “TOTAL BILIRUBIN” value [1] of the same molecule?
Its value is 0.17 mg/dL.

And the “TOTAL PROTEIN” value [1]?
Its value is 6.25 G/DL.

And the “URIC ACID” value [1]?
The value was 1.42 mg/dL.

And the “ABSOLUTE BASOPHIL” value [2]?
Its value is 0 CELLS/uL.

What about the “ABSOLUTE EOSINOPHIL” value [2] of the same molecule?
The value was 0 CELLS/uL.

And the “ABSOLUTE LYMPHOCYTE” value [2]?
Its value is 10076.67 CELLS/uL.

What about the “ABSOLUTE MONOCYTE” value [2] of the same molecule?
The value was 124 CELLS/uL.

What about the “ABSOLUTE SEGMENTED NEUTROPHIL” value [2] of the same molecule?
Its value is 966 CELLS/uL.

And the BASOPHIL [2]?
The BASOPHIL was 0%.

What about the EOSINOPHIL [2] of the same molecule?
The EOSINOPHIL was 0%.

What about the “ERYTHROCYTE COUNT” value [2] of the same molecule?
Its value is 5.57 x10E6/uL.

What about the HEMATOCRIT [2] of the same molecule?
Its HEMATOCRIT is 33.37%.

What about the HEMOGLOBIN [2] of the same molecule?
The HEMOGLOBIN was 12.73 G/DL.

And the “LEUKOCYTE COUNT” value [2]?
Its value is 11.17 x10E3/uL.

What about the LYMPHOCYTE [2] of the same molecule?
Its LYMPHOCYTE is 90.33%.

And the “MEAN CORPUSCULAR HEMOGLOBIN” value [2]?
The value was 22.9 pg.

What about the “MEAN CORPUSCULAR HEMOGLOBIN CONCENTRATION” value [2] of the same molecule?
Its value is 38.18 G/DL.

And the “MEAN CORPUSCULAR VOLUME” value [2]?
The value was 59.97 fL.

And the MONOCYTE [2]?
Its MONOCYTE is 1%.

What about the NEUTROPHIL [2] of the same molecule?
The NEUTROPHIL was 8.67%.

What about the “NUCLEATED RED BLOOD CELLS” value [2] of the same molecule?
The value was 0 /100WBC.

And the “PLATELET COUNT” value [2]?
Its value is 1078 x10E3/uL.

What about the “ALANINE AMINOTRANSFERASE” value [2] of the same molecule?
The value was 37.17 u/L.

And the ALBUMIN [2]?
Its ALBUMIN is 4.2 G/DL.

And the “ALKALINE PHOSPHATASE” value [2]?
The value was 322.17 u/L.

What about the “ASPARTATE AMINOTRANSFERASE” value [2] of the same molecule?
The value was 67.67 u/L.

What about the “BLOOD UREA NITROGEN” value [2] of the same molecule?
The value was 14 mg/dL.

What about the “CARBON DIOXIDE” value [2] of the same molecule?
The value was 27.67 mmol/L.

And the CHLORIDE [2]?
The CHLORIDE was 102.17 MEQ/L.

And the CHOLESTEROL [2]?
Its CHOLESTEROL is 67.67 mg/dL.

What about the “CREATINE PHOSPHOKINASE” value [2] of the same molecule?
Its value is 171.83 u/L.

What about the CREATININE [2] of the same molecule?
Its CREATININE is 0.27 mg/dL.

What about the GLUCOSE [2] of the same molecule?
Its GLUCOSE is 172 mg/dL.

And the “LACTATE DEHYDROGENASE” value [2]?
Its value is 85.33 u/L.

And the LIPASE [2]?
The LIPASE was 8.67 u/L.

And the PHOSPHORUS [2]?
Its PHOSPHORUS is 12 mg/dL.

And the POTASSIUM [2]?
The POTASSIUM was 6.09 MEQ/L.

And the SODIUM [2]?
Its SODIUM is 144.82 MEQ/L.

What about the “TOTAL BILIRUBIN” value [2] of the same molecule?
The value was 0.13 mg/dL.

And the “TOTAL PROTEIN” value [2]?
The value was 6.07 G/DL.

And the “URIC ACID” value [2]?
Its value is 2.13 mg/dL.

What about the “ABSOLUTE BASOPHIL” value [3] of the same molecule?
The value was 0 CELLS/uL.

What about the “ABSOLUTE EOSINOPHIL” value [3] of the same molecule?
Its value is 0 CELLS/uL.

And the “ABSOLUTE LYMPHOCYTE” value [3]?
The value was 6638.67 CELLS/uL.

And the “ABSOLUTE MONOCYTE” value [3]?
The value was 81.67 CELLS/uL.

What about the “ABSOLUTE SEGMENTED NEUTROPHIL” value [3] of the same molecule?
The value was 1179.67 CELLS/uL.

What about the BASOPHIL [3] of the same molecule?
Its BASOPHIL is 0%.

What about the EOSINOPHIL [3] of the same molecule?
Its EOSINOPHIL is 0%.

And the “ERYTHROCYTE COUNT” value [3]?
The value was 4.84 x10E6/uL.

What about the HEMATOCRIT [3] of the same molecule?
The HEMATOCRIT was 29.67%.

What about the HEMOGLOBIN [3] of the same molecule?
Its HEMOGLOBIN is 11.57 G/DL.

And the “LEUKOCYTE COUNT” value [3]?
Its value is 7.9 x10E3/uL.

What about the LYMPHOCYTE [3] of the same molecule?
The LYMPHOCYTE was 84%.

And the “MEAN CORPUSCULAR HEMOGLOBIN” value [3]?
Its value is 23.9 pg.

And the “MEAN CORPUSCULAR HEMOGLOBIN CONCENTRATION” value [3]?
Its value is 39 G/DL.

What about the “MEAN CORPUSCULAR VOLUME” value [3] of the same molecule?
Its value is 61.37 fL.

And the MONOCYTE [3]?
The MONOCYTE was 1%.

And the NEUTROPHIL [3]?
Its NEUTROPHIL is 15%.

What about the “NUCLEATED RED BLOOD CELLS” value [3] of the same molecule?
The value was 0.67 /100WBC.

What about the “PLATELET COUNT” value [3] of the same molecule?
Its value is 982 x10E3/uL.

What about the “ALANINE AMINOTRANSFERASE” value [3] of the same molecule?
The value was 51 u/L.

What about the ALBUMIN [3] of the same molecule?
Its ALBUMIN is 4.1 G/DL.

What about the “ALKALINE PHOSPHATASE” value [3] of the same molecule?
Its value is 430.67 u/L.

What about the “ASPARTATE AMINOTRANSFERASE” value [3] of the same molecule?
Its value is 87.33 u/L.

What about the “BLOOD UREA NITROGEN” value [3] of the same molecule?
The value was 15.67 mg/dL.

And the “CARBON DIOXIDE” value [3]?
The value was 30 mmol/L.

What about the CHLORIDE [3] of the same molecule?
Its CHLORIDE is 101 MEQ/L.

What about the CHOLESTEROL [3] of the same molecule?
Its CHOLESTEROL is 78.67 mg/dL.

What about the “CREATINE PHOSPHOKINASE” value [3] of the same molecule?
The value was 358 u/L.

And the CREATININE [3]?
Its CREATININE is 0.27 mg/dL.

What about the GLUCOSE [3] of the same molecule?
Its GLUCOSE is 152.67 mg/dL.

And the “LACTATE DEHYDROGENASE” value [3]?
Its value is 97 u/L.

And the LIPASE [3]?
The LIPASE was 9.67 u/L.

And the PHOSPHORUS [3]?
The PHOSPHORUS was 12.5 mg/dL.

What about the POTASSIUM [3] of the same molecule?
Its POTASSIUM is 6.3 MEQ/L.

What about the SODIUM [3] of the same molecule?
The SODIUM was 145.1 MEQ/L.

What about the “TOTAL BILIRUBIN” value [3] of the same molecule?
The value was 0.13 mg/dL.

And the “TOTAL PROTEIN” value [3]?
The value was 5.83 G/DL.

What about the “URIC ACID” value [3] of the same molecule?
Its value is 0.97 mg/dL.
